Assay results reported in patent US8178579B2, “Dioxanes and uses thereof” (President and Fellows of Harvard College, priority 2001, dated 2012).
“Also recorded” adds a separate entry of the source.

Tests used:
[1] = target: T1, HDAC6F (Homo sapiens, UniProt Q9UBN7); assay: in vitro tubulin deacetylase (TDAC) assay, immunoprecipitated wild-type HDAC6F, MAP-stabilized tubulin; type: biochemical; settings: TSA 300 nM or 1 μM; tubacin, niltubacin, trapoxin B 1 μM
T1 construct: made in house; host or cells: TAg Jurkat cells, transient transfection, anti-FLAG M2 immunoprecipitation
T1 sequence (Q9UBN7 1-1215): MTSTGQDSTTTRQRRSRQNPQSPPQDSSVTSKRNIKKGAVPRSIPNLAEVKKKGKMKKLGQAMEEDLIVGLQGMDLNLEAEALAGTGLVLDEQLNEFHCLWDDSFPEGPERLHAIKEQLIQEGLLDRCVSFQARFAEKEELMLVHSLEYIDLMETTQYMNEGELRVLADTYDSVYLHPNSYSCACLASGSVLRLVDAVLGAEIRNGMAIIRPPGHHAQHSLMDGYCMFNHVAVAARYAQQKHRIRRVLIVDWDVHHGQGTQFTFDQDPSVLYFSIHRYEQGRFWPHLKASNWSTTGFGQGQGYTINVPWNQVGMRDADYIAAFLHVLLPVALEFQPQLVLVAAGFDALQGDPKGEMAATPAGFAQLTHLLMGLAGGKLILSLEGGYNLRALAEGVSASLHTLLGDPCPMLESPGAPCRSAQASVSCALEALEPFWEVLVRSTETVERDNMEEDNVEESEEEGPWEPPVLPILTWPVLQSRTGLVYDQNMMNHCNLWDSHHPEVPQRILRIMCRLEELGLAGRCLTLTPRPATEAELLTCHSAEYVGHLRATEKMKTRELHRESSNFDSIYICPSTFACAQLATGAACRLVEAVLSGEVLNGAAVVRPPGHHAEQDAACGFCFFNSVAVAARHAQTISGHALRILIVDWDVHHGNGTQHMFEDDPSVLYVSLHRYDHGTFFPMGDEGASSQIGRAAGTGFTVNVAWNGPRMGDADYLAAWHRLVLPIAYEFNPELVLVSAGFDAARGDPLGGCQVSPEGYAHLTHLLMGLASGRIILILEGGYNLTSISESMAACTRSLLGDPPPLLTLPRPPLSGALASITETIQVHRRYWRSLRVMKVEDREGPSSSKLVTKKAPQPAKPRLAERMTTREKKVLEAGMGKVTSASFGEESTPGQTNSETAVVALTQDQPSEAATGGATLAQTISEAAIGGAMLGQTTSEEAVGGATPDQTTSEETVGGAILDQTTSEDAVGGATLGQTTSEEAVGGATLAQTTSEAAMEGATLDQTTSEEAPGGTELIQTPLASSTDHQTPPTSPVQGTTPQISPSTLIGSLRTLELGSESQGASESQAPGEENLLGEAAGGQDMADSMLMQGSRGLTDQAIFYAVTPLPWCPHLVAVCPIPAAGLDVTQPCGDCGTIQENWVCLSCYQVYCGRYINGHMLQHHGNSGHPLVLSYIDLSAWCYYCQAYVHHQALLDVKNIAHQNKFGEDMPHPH
Text: (§1) Tubulin and MAPs were isolated from bovine brain as described [See http://mitchison.med.harvard.edu/protocols/tubprep.html]. Whole brain and fractions from phosphocellulose chromatography were blotted for HDAC6 and acetylated α-tubulin. Cultured hippocampal neurons from dissociated 1-day old rat brains were transfected with an enhanced green fluorescent protein (EGFP)-actin construct at 4-5 days using the calcium phosphate method [E. N. Star, D. J. Kwiatkowski and V. N. Murthy, Nat. Neurosci. […] K. Miranti and M. E. Greenberg, J. Neurosci. […] Transfected cultures were allowed to grow for at least 48 h before the addition of experimental compounds.
(§2) [^3H]Acetate-incorporated histones were isolated from butyrate-treated HeLa cells as described [J. Taunton, C. […] Immunoprecipitates were incubated with acetylated histones and HDAC activity determined by scintillation counting as described [J. Taunton, C. […] TDAC assays were performed with immunoprecipitates using MAP-stabilized microtubules polymerized from MAP-rich tubulin fraction as described [C. […] Reactions were incubated (2 h) at 37° C., then incubated on ice (15 min).

[2] = target: T2, HDAC6 (Homo sapiens, UniProt Q9UBN7); assay: HDAC assay, [3H]acetate-incorporated histones with immunoprecipitated FLAG-tagged HDAC6 (HDAC6F); type: biochemical; parameters: made in house; host or cells: TAg Jurkat cells, transient transfection, anti-FLAG M2 immunoprecipitation; settings: [3H]-labeled histones, n=3
T2 sequence (Q9UBN7 1-1215): T1 sequence (Q9UBN7 1-1215)
Description: Cell culture and Transfections. TAg-Jurkat cells were transfected by electroporation with 5 μg of FLAG-epitope-tagged pBJ5 constructs (as described in ref. 5c) for expression of recombinant proteins. Cells were harvested 48 h posttransfection.
HDAC assays. […] Compounds were added in DMSO such that final assay concentrations were 1% DMSO. IC50s were calculated using Prism 3.0 software. Curve fitting was done without constraints using the program's Sigmoidal-Dose Response parameters. All data points were acquired in duplicate and IC50s are calculated from the composite results of at least two separate experiments.
as §1, §2

SMILES | inhibition of TDAC activity of wild-type HDAC6F [1] | inhibition of HDAC activity of wild-type HDAC6F [2]
CC(/C=C/C(=O)NO)=C\[C@@H](C)C(=O)c1ccc(N(C)C)cc1 [TSA, trichostatin A, reference compound] | inhibited by TSA (300 nM) or tubacin (1 μM); also recorded: inhibited α-tubulin deacetylation | only partial inhibited by TSA or tubacin
O=C(CCCCCCC(=O)Nc1ccc([C@@H]2OC(c3ccc(CO)cc3)C[C@H](CSc3nc(-c4ccccc4)c(-c4ccccc4)o3)O2)cc1)NO (stereo partly shown) [tubacin] | inhibited by TSA (300 nM) or tubacin (1 μM); also recorded: inhibited α-tubulin deacetylation | only partial inhibited by TSA or tubacin
